# Laboratory results reported in paper PMC4858680, “A platinum-based hybrid drug design approach to circumvent acquired resistance to molecular targeted tyrosine kinase inhibitors” (Scientific Reports, 2016).
# Where two headings read alike, the source gives them in different places.
# Key:
# DDR2 = target: T1, DDR2 (Homo sapiens, UniProt Q16832); settings: 10 μM
# T1 sequence (Q16832 22-855): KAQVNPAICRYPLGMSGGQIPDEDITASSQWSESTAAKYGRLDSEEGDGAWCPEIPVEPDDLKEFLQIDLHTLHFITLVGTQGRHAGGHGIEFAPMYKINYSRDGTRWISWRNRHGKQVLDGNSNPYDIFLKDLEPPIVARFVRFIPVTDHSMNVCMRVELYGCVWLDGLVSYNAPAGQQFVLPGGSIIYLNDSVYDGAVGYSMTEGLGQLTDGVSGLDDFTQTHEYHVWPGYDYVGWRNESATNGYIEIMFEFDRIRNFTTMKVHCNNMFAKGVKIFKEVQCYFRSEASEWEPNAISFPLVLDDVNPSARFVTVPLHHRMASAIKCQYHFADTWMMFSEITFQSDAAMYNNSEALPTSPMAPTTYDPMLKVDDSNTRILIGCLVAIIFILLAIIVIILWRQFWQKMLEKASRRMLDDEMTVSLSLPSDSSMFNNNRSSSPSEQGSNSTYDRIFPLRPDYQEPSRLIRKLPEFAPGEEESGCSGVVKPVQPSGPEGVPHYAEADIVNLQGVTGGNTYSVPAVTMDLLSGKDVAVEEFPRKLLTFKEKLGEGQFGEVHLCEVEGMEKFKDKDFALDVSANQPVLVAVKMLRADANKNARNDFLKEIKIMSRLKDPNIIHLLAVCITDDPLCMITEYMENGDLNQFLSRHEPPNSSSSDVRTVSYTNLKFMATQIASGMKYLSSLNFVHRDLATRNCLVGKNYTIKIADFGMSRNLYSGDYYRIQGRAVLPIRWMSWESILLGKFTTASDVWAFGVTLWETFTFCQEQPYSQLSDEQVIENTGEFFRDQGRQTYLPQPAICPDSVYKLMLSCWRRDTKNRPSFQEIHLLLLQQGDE
# FRK = FRK (Homo sapiens, UniProt P42685); settings: 10 μM
# FRK, sequence (P42685 whole entry): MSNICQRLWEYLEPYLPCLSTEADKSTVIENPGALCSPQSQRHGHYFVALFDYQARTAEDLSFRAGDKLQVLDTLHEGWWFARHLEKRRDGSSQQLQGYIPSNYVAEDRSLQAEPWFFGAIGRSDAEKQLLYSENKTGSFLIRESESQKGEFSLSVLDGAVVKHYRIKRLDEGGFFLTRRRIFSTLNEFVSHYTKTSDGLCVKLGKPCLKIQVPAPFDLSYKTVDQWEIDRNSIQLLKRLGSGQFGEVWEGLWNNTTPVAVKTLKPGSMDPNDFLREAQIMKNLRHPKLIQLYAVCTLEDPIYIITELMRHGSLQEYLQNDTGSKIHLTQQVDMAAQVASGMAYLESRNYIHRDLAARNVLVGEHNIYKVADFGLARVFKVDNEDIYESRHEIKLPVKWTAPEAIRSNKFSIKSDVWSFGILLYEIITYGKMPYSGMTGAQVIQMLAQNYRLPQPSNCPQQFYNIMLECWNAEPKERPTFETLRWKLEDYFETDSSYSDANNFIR
# EPHA4 = target: T2, EPHA4 (Homo sapiens, UniProt P54764); assay type: binding; settings: 10 μM
# T2 construct: purchased DiscoveRx KINOMEscan
# T2 sequence (P54764 20-986): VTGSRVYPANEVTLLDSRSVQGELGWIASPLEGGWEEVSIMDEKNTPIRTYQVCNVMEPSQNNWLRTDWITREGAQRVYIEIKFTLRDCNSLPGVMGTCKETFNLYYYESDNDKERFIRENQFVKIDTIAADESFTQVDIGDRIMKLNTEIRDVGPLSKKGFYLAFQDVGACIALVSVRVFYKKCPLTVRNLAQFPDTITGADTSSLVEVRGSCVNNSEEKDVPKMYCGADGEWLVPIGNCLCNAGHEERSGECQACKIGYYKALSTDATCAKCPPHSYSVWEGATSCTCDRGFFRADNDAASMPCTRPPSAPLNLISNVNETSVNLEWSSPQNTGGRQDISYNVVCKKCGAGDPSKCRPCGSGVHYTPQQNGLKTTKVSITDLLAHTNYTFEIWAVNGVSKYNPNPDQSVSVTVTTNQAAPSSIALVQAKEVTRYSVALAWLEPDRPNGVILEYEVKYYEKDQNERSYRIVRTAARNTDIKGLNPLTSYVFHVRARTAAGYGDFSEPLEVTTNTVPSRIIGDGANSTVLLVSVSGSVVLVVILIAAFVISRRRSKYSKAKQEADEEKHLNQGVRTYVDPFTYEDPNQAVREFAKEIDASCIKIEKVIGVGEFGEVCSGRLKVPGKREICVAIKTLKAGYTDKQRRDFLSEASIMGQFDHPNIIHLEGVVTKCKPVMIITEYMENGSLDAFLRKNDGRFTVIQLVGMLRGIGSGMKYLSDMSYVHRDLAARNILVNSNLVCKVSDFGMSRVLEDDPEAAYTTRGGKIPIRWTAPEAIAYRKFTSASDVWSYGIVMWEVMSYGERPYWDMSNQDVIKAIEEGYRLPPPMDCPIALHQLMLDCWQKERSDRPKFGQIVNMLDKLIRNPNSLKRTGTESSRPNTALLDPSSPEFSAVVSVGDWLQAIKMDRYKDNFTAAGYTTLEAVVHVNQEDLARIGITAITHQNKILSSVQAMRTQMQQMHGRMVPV
# EPHA6 = target: T3, EPHA6 (Homo sapiens, UniProt Q9UF33); settings: 10 μM
# T3 sequence (Q9UF33 23-1036): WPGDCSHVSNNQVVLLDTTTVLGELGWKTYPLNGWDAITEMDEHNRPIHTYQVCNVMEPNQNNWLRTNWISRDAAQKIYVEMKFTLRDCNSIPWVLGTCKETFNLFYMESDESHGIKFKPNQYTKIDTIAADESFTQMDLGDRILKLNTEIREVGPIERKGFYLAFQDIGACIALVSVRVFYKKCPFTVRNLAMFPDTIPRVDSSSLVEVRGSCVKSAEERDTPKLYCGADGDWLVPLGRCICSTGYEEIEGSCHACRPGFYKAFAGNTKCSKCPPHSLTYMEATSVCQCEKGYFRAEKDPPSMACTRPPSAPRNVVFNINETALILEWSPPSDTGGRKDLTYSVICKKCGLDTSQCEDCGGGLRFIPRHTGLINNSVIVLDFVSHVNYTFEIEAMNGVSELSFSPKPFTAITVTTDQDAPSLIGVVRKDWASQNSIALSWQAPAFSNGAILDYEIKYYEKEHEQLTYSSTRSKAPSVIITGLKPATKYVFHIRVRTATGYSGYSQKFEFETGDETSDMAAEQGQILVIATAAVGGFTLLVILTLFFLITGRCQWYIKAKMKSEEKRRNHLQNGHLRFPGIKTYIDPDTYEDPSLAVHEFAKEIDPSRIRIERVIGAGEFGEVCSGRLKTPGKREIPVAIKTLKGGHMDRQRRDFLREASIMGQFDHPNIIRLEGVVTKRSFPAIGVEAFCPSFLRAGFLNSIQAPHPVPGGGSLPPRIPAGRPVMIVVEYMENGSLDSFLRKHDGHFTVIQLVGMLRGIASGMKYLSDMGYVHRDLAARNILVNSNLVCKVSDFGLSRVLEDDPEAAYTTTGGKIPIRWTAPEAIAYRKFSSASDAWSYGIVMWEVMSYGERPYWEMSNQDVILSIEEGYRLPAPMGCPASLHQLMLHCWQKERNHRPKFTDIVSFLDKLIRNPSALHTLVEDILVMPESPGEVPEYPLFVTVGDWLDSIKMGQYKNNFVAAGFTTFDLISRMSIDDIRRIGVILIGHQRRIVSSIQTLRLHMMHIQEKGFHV
# H292 = assay: Anticancer activity (cytotoxicity) in NSCLC cell line; assay type: cell-based
# LTK = LTK (Homo sapiens, UniProt P29376); settings: 10 μM
# LTK, sequence (P29376 17-864): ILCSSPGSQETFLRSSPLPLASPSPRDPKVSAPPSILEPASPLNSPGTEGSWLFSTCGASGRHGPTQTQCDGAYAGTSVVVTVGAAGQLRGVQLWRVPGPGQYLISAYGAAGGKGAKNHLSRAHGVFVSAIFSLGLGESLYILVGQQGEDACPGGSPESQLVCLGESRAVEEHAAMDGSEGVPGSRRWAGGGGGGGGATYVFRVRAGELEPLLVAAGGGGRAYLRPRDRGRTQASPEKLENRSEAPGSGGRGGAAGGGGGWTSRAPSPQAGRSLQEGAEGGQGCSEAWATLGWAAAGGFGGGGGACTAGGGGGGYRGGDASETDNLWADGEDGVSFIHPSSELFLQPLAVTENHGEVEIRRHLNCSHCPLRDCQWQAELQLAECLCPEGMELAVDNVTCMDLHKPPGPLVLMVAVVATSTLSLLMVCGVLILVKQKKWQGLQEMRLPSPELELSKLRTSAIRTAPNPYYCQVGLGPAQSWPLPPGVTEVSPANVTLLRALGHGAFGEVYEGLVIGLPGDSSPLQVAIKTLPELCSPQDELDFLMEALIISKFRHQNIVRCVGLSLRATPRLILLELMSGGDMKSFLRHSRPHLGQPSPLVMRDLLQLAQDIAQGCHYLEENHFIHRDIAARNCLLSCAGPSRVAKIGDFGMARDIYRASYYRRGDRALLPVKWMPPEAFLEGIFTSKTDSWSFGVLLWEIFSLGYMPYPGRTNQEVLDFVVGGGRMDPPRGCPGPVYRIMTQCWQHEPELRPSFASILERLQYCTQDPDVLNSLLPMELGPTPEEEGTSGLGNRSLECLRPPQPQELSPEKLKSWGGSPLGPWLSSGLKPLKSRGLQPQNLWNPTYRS
# RET(M918T) = RET(M918T) (Homo sapiens, UniProt P07949, M918T); settings: 10 μM
# RET(M918T), sequence (P07949 29-1114 M918T): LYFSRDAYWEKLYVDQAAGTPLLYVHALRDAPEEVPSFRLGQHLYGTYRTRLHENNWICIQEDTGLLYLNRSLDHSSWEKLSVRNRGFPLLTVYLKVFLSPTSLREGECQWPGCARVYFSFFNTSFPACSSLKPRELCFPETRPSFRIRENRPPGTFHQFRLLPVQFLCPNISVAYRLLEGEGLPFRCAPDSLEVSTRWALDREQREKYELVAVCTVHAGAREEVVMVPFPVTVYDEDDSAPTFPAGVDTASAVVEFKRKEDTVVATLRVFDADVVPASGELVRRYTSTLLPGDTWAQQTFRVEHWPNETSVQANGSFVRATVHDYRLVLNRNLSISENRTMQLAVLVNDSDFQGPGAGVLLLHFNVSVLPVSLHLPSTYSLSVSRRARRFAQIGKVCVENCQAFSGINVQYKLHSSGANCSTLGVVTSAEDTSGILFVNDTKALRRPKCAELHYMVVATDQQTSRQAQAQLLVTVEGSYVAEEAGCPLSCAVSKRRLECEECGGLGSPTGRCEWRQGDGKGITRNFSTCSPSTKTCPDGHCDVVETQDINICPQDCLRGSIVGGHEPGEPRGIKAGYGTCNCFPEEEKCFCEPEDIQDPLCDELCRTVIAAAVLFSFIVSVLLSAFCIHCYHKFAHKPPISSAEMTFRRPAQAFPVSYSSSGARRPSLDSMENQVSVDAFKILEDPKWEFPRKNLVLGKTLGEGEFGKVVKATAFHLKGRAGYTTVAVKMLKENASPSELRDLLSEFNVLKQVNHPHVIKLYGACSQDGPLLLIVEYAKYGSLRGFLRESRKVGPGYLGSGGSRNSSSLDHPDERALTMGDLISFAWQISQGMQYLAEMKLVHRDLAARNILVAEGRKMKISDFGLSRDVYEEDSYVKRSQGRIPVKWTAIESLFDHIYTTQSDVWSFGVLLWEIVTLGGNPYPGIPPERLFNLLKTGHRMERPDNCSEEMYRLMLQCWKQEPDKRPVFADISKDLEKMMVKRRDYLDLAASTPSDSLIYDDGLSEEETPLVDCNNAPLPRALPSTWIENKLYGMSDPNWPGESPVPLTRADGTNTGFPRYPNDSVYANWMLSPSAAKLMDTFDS
# ITK = target: T4, ITK (Homo sapiens, UniProt Q08881); assay: biochemical; settings: read-out: Percent control
# T4 sequence (Q08881 1-620): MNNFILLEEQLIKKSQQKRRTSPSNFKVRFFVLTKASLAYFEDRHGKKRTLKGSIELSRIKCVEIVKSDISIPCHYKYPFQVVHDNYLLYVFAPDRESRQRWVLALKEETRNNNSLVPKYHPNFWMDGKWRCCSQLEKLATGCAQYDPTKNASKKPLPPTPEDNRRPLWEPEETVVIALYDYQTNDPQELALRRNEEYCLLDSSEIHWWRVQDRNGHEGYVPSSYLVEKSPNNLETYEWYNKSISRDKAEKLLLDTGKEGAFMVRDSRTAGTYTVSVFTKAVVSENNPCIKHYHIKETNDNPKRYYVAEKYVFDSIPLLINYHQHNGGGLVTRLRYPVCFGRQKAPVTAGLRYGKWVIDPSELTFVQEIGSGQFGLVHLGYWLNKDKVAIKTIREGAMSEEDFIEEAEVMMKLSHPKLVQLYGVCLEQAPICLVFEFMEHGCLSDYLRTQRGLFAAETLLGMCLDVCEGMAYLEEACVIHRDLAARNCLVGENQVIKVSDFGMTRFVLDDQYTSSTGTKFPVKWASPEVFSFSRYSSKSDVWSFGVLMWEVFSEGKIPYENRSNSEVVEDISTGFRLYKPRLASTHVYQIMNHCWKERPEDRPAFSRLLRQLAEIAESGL
# [1] = NSCLC, EGFR wild type, read-out: Anticancer activity (IC50) H292
# [2] = Homo sapiens, NCI-H292, read-out: Anticancer activity (IC50) H292
SMILES,Percent control (DDR2) [%],Percent control (FRK) [%],Percent control (EPHA4) [%],Percent control (EPHA6) [%],IC50 (H292; [1]) [µM],Percent control (LTK) [%],Percent control (RET(M918T)) [%],remaining activity at 10 µM (ITK) [%],IC50 (H292; [2]) [µM]
"C#Cc1cccc(Nc2c3cc(OCCOC)c(OCCOC)cc3nc[n+]2[Pt@SP2-2]([NH3+])([NH3+])[Cl])c1 [2a, cisplatin-erlotinib]",100,75,79,71,3.27 ± 1.75,82,61,–,–
"COc1cc2c(Nc3ccc(Br)cc3F)[n+]([Pt-2]3([Cl])[NH2+]C4CCCCC4[NH2+]3)cnc2cc1OCC1CCN(C)CC1 (centres unmarked) [3b, oxaliplatin-vandetanib]",0.21,56,–,6.3,9.32 ± 1.01,27,–,–,–
"Cc1ccc(NC(=O)c2ccc(CN3CCN(C)CC3)cc2)cc1Nc1nccc(-c2cccnc2)[n+]1[Pt-2]1([Cl])[NH2+]C2CCCCC2[NH2+]1 (centres unmarked) [1b, oxaliplatin-imatinib]",10,58,88,90,–,85,88,–,–
"COc1cc2c(Nc3ccc(Br)cc3F)ncnc2cc1OCC1CCN(C)CC1 [Vandetanib, reference compound]",–,–,–,–,–,–,–,100,6.24 ± 0.94
"Cc1ccc(NC(=O)c2ccc(CN3CCN(C)CC3)cc2)cc1Nc1nccc(-c2cccnc2)n1 [Imatinib, reference compound]",0.1,13.0,100,100,–,92,100,100,–
C#Cc1cccc(Nc2ncnc3cc(OCCOC)c(OCCOC)cc23)c1 [Erlotinib],–,–,–,–,–,–,–,100,0.22 ± 0.12
